Laboratory results published in ChEMBL document CHEMBL1201862, “PubChem BioAssay data set” (2004).
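Dose response: 5 concentrations. Exposure: 48 h. Format: 96-well plates. Endpoint: linear interpolation; highest concentration if not reached. The concentration for 50% growth inhibition is given as GI50.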 Activity calls are given as the source filed them. Cut-off read from the data, not from the text of the source: active = GI50 up to about 1.1 µM and inactive = higher.

Assays:
Assay in all cases: inhibition of tumour cell growth, NCI panel, 48 h
[1] = test system: TK-10
[2] = test system: OVCAR-4
[3] = test system: Malme-3M
[4] = test system: HOP-92
[5] = test system: MOLT-4
[6] = test system: MCF7
[7] = test system: SF-539
[8] = test system: MDA-MB-231
[9] = test system: CAKI-1
[10] = test system: SK-MEL-2
[11] = test system: OVCAR-8
[12] = test system: Hs-578T
[13] = test system: ACHN
[14] = test system: M14
[15] = test system: K562
[16] = test system: SF-268
[17] = test system: OVCAR-3
[18] = test system: PC-3
[19] = test system: 786-0
[20] = test system: HCT-15
[21] = test system: SW-620
[22] = test system: HOP-62
[23] = test system: IGROV-1
[24] = test system: UACC-62
[25] = test system: UO-31
[26] = test system: RPMI-8226
[27] = test system: NCI-H522
[28] = test system: HT-29
[29] = test system: DU-145
[30] = test system: COLO 205
[31] = test system: NCI-H226
[32] = test system: SF-295
[33] = test system: SNB-19
[34] = test system: A498
[35] = test system: MDA-MB-435
[36] = test system: SK-MEL-5
[37] = test system: UACC-257
[38] = test system: EKVX
[39] = test system: SK-MEL-28
[40] = test system: SR
[41] = test system: OVCAR-5
[42] = test system: SK-OV-3
[43] = test system: LOX IMVI
[44] = test system: KM12
[45] = test system: RXF 393
[46] = test system: A549
[47] = test system: MDA-N
[48] = test system: T47D
[49] = test system: NCI-H23
[50] = test system: SN12C
[51] = test system: SNB-75
[52] = test system: BT-549
[53] = test system: CCRF-CEM
[54] = test system: NCI/ADR-RES
[55] = test system: HCT-116
[56] = test system: U-251
[57] = test system: HCC 2998
[58] = test system: NCI-H460
[59] = test system: HL-60

Measured: GI50

CC12CCC(=O)C=C1CCC1C2C(O)CC2(C)C(c3csc(N)n3)CCC12.O=S(=O)(O)c1ccc(Br)cc1 (centres undefined)
active: [53] < 0.01 µM
inactive: [1] > 100 µM | [2] > 100 µM | [3] > 100 µM | [4] > 100 µM | [5] > 100 µM | [6] > 100 µM | [7] > 100 µM | [8] > 100 µM | [9] > 100 µM | [10] > 100 µM | [11] > 100 µM | [12] > 100 µM | [13] > 100 µM | [14] > 100 µM | [15] > 100 µM | [16] > 100 µM | [17] > 100 µM | [18] > 100 µM | [19] > 100 µM | [21] > 100 µM | [22] > 100 µM | [23] > 100 µM | [24] > 100 µM | [25] > 100 µM | [26] > 100 µM | [27] > 100 µM | [28] > 100 µM | [29] > 100 µM | [30] > 100 µM | [31] > 100 µM | [32] > 100 µM | [33] > 100 µM | [34] > 100 µM | [35] > 100 µM | [36] > 100 µM | [37] > 100 µM | [38] > 100 µM | [39] > 100 µM | [40] > 100 µM | [41] > 100 µM | [42] > 100 µM | [43] > 100 µM | [44] > 100 µM | [45] > 100 µM | [46] > 100 µM | [47] > 100 µM | [48] > 100 µM | [49] > 100 µM | [50] > 100 µM | [51] > 100 µM | [52] > 100 µM | [54] > 100 µM | [55] > 100 µM | [56] > 100 µM | [57] > 100 µM
> 100 µM: [20]

CCSc1s/c(=N/c2ccc(/N=c3\sc(C)c(SC)s3)cc2)sc1-c1ccc(C)cc1
> 100 µM: [20]
inactive: [1] > 100 µM | [2] > 100 µM | [3] > 100 µM | [4] > 100 µM | [5] > 100 µM | [6] > 100 µM | [7] > 100 µM | [8] > 100 µM | [9] > 100 µM | [10] > 100 µM | [11] > 100 µM | [12] > 100 µM | [13] > 100 µM | [14] > 100 µM | [15] > 100 µM | [16] > 100 µM | [17] > 100 µM | [18] > 100 µM | [19] > 100 µM | [21] > 100 µM | [22] > 100 µM | [23] > 100 µM | [24] > 100 µM | [25] > 100 µM | [26] > 100 µM | [27] > 100 µM | [58] > 100 µM | [28] > 100 µM | [29] > 100 µM | [30] > 100 µM | [32] > 100 µM | [33] > 100 µM | [34] > 100 µM | [35] > 100 µM | [36] > 100 µM | [37] > 100 µM | [38] > 100 µM | [39] > 100 µM | [40] > 100 µM | [41] > 100 µM | [42] > 100 µM | [43] > 100 µM | [44] > 100 µM | [45] > 100 µM | [46] > 100 µM | [47] > 100 µM | [48] > 100 µM | [49] > 100 µM | [50] > 100 µM | [51] 32 µM | [52] > 100 µM | [59] > 100 µM | [53] > 100 µM | [54] > 100 µM | [55] > 100 µM | [56] > 100 µM | [57] > 100 µM

Fc1ccccc1-c1cc(S)c2cc3c(cc2n1)OCO3
5.65 µM: [20]
inactive: [1] > 48.3 µM | [2] > 100 µM | [3] 11.7 µM | [4] > 45.7 µM | [5] 9.62 µM | [6] 4.88 µM | [7] 7.18 µM | [8] > 56.1 µM | [9] 9.93 µM | [10] 7.69 µM | [11] 17.8 µM | [12] 5.24 µM | [13] 38 µM | [14] 6.61 µM | [15] 13.1 µM | [16] > 44.8 µM | [17] 10.9 µM | [18] 6.08 µM | [19] 10.4 µM | [21] 5.85 µM | [22] > 70.5 µM | [23] 7.93 µM | [24] 3.71 µM | [25] 27.5 µM | [27] 13.8 µM | [58] 4.57 µM | [28] 17.2 µM | [29] 13 µM | [30] 28.6 µM | [31] 19.2 µM | [32] 7.91 µM | [33] 15.2 µM | [34] 10.4 µM | [35] 3.59 µM | [36] 3.63 µM | [37] 8.47 µM | [38] 10.5 µM | [39] 27.9 µM | [40] 4.34 µM | [41] > 51.3 µM | [42] 16.1 µM | [43] 10.9 µM | [44] 4.91 µM | [45] > 54.2 µM | [46] 5.52 µM | [47] 3.03 µM | [48] 28.1 µM | [49] 9.55 µM | [50] 34.2 µM | [52] 61 µM | [53] 13.4 µM | [54] 4.26 µM | [55] 7.08 µM | [56] 4.33 µM | [57] 5.53 µM

CC(=O)c1c(C)cn(S(=O)(=O)NC(=O)Nc2nncs2)c1C
inactive: [1] > 100 µM | [2] > 100 µM | [3] > 100 µM | [4] > 100 µM | [5] > 100 µM | [6] > 100 µM | [8] > 100 µM | [9] > 100 µM | [10] > 100 µM | [11] > 100 µM | [12] > 100 µM | [13] > 100 µM | [14] > 100 µM | [15] > 100 µM | [16] > 100 µM | [17] > 100 µM | [18] > 100 µM | [19] > 100 µM | [21] > 100 µM | [22] > 100 µM | [23] > 100 µM | [24] > 100 µM | [25] 68.9 µM | [26] > 100 µM | [27] > 100 µM | [58] > 100 µM | [28] > 100 µM | [29] > 100 µM | [30] > 100 µM | [31] 49.2 µM | [32] > 100 µM | [33] > 100 µM | [34] > 100 µM | [35] > 100 µM | [36] > 100 µM | [37] > 100 µM | [38] > 100 µM | [39] > 100 µM | [40] > 100 µM | [41] > 100 µM | [42] > 100 µM | [43] > 100 µM | [44] > 100 µM | [45] > 100 µM | [46] > 100 µM | [47] > 100 µM | [48] > 100 µM | [49] > 100 µM | [50] > 100 µM | [51] > 100 µM | [52] > 100 µM | [59] > 100 µM | [53] 23.3 µM | [54] > 100 µM | [55] > 100 µM | [56] > 100 µM | [57] > 100 µM
> 100 µM: [20]
